US20260174682A1, “GAMMA-AMINOBUTYRIC ACID DERIVATIVE COMPRISING POLYCYCLIC STRUCTURE, METHOD FOR PREPARING SAME, AND USE THEREOF” (ZHONGSHAN INSTITUTE FOR DRUG DISCOVERY, SIMM, CAS., priority 2022, published 2026)
Where “and” joins values, the source holds several entries; their conditions need not be identical. Equal entries are not always repeated.

Experiments:
[1] = test system: male SD rats; assay: Acute toxicity test on rats; conditions: for Observation of clinical symptoms 0.5 h / Observation of clinical symptoms 1 h / Observation of clinical symptoms 2 h / Observation of clinical symptoms 4 h / Observation of clinical symptoms 6 h / Observation of clinical symptoms 24 h: per animal
Protocol: After adapting to the environment for one week, the SD rats were used in a preliminary acute toxicity test. The compounds were newly formulated on the day of the test. […] After being labeled and weighed, the animals were randomly grouped with 2-4 animals in each group. […] Clinical symptoms of each animal were observed and recorded at 0.5 hours, 1 hour, 2 hours, 4 hours, 6 hours and 24 hours after the administration, respectively. Clinical symptom codes were as follows: 0 no abnormality, 1 mild tremor, 2 unsteady gait, 3 prone position, 4 startle reflex, 5 difficult breathing, 6 righting reflex disappeared, 7 eyelid closure, 8 shortness of breath, and x animal death.

[2] = test system: motor functions of rats; assay: Rotarod test of impact on motor functions of rats; conditions: male SD rats; for impact on rotarod behaviors of the rats: gavage 10 mg/kg (calculated by free base); for impact on rotarod behaviors of the rats / impact on rotarod behaviors of the rats (impacted proportion): FIG. 7; for impact on rotarod behaviors of the rats (impacted proportion): gavage 30 mg/kg (calculated by free base)
Protocol: A negative vehicle control, a positive drug control group (pregabalin, (PGB), 10 mg/kg, 30 mg/kg) were set, and a test group (including (+)—I-3 p-toluenesulfonate at 10 mg/kg (calculated by free base), (+)—I-4 p-toluenesulfonate at 10 mg/kg (calculated by free base), (+)—I-3 p-toluenesulfonate at 30 mg/kg (calculated by free base) and (+)—I-4 p-toluenesulfonate at 30 mg/kg (calculated by free base)) were set. Male SD rats with the body weight of 200-250 g were selected, with 10 animals in each administration group. AYLS-31A fatigue rota-rod (Shanghai Xinruan Information Technology Co., Ltd.) was used as rotarod test equipment, and a rotation speed was set at a constant speed of 6 rpm. A screening test was carried out on the first day. Tail tips of the rats were pinched, placed on the rotarod, and released the same after the rats maintained balance on the rotarod and moved along with the rotarod. The falling number of the rats within the next 1 min was recorded and counted. The rats that fell for 3 times within 1 min were excluded, which were not used for subsequent drug evaluation. A drug evaluation test was carried out on the second day. The rats were fasted for 8 h before the test, then a rotarod test was carried out once to serve as a time point (BL) before administration, and then administration was performed by gavage. […] The falling number of the rats within 1 min was recorded and counted. The rats falling for 3 times within one min were regarded as having “motor function impairments” caused by drug toxicity. The “motor function impairment” degree (rotarod fall) of each administration group at a specific time point was calculated as a proportion of a number of the animals with “motor function impairments” in the group to a total number of the animals in the group.
The rotarod test is a classic test for measuring the damage of compounds to motor functions of animals.

[3] = test system: Sprague Dawley (SD) rat spared nerve injury (SNI) model; assay: Analgesic effect in rat spared nerve injury (SNI) chronic neuropathic pain model; type: in vivo; conditions: SNI rats
Protocol: Establishment of the SNI model: Surgery was performed according to an aseptic operation method, and various surgical instruments, including scalpels, tweezers, suture needles/threads, surgical cotton, etc., were disinfected before the surgery. Animals were anesthetized by intraperitoneal injection of a Zoletil™ 50 solution at 50 mg/kg and then placed in lateral decubitus positions. After hair in surgical areas of lower bodies of animals was shaved, the animals were disinfected alternately with iodophor and 75% alcohol. The skin was cut at upper edges of left hind limbs, muscles were bluntly separated to expose a sciatic nerve trunk and 3 branches thereof, i.e., a tibial nerve, a common peroneal nerve and a sural nerve. The tibial nerve and the common peroneal nerve were ligated and cut, and the sural nerve was preserved and maintained intact. After the surgery, wounds were sutured layer by layer, the animals were administered with 25% ampicillin (1 mL/kg) through intraperitoneal injection to prevent infection, and routine nursing was performed. In sham group, only the sciatic nerve and the branches thereof were exposed, the nerves were not ligated and cut, and other operations were the same as those in the model group. Detection of a mechanical pain threshold: A Von-frey test fiber was used to detect the mechanical pain threshold of the sole of an operative side of each animal on day 1, day 3 and day 7 after the surgery, respectively. An “up-and-down” method was used as a method of detecting the mechanical pain threshold at the stimulation intensity of 0.4, 0.6, 1, 2, 4, 6, 8, and 15 g. During the test, the test fiber was used to vertically stimulate the site, close to an outer side, in the sole center of the left hind paw of a rat for 6-8 seconds each time at an interval of 5 seconds. A pain response was shown as an obvious paw withdrawal, paw licking, or paw lifting behavior of the animals during each test. From day 11 after the surgery, the animals were placed in an experimental environment for adaptation, wherein the adaptation was performed continuously for 15 min per day for 3 days. On day 13, a basic value of mechanical pain hypersensitivity was detected after the adaptation was completed. The mechanical pain hypersensitivity was expressed by a 50% paw-withdrawal threshold (PWT) according to a calculation formula of 50% PWT (g)=10^xf+kδ, wherein xf is a log value of a fiber test force, k is a tabular value, and δ is an average spacing of the log value of the fiber test force.
Pharmacodynamic evaluation: According to basic threshold detection results on day 13 after the surgery, the animals in the model group without the mechanical pain hypersensitivity, that is, the PWT was greater than 4 g, were excluded, and the other successfully modeled animals were used for a formal test. On day 14 after the surgery, various compound to be tested were newly formulated. Pregabalin was directly dissolved with 0.9% sodium chloride at a dose of 30 mg/kg to obtain a solution at a desired concentration. (±)—I-7, (±)—I-3 and (±)—I-4 p-toluenesulfonate were also completely dissolved with a 0.9% sodium chloride solution at a dose of 30 mg/kg (calculated by free base). The successfully modeled animals were randomly divided into 5 groups with 8 animals in each group. In addition, 7 animals were selected in the sham group. […] The mechanical pain hypersensitivity response of the left hind paw was detected at 1 h, 2 h, 4 h, 6 h, 8 h, 10 h, and 24 h after the administration. Evaluation was performed by using a blind method, and a detection method was the same as above. An area under a mechanical pain threshold-time curve (AUC) was calculated using GraphPad Prism Version 8.0.1 software.

[4] = oral gavage 163.8 mg/kg (calculated by free base)
[5] = oral gavage 300 mg/kg (calculated by free base)
[6] = oral gavage 10 mg/kg (calculated by free base), from AUC of mechanical pain threshold-time curve to 24 h

| Compound | abnormal behaviors at 0-24 h after the administration [1, 4] | Observation of clinical symptoms 0.5 h [1, 4] | Observation of clinical symptoms 1 h [1, 4] | Observation of clinical symptoms 2 h [1, 4] | Observation of clinical symptoms 4 h [1, 4] | Observation of clinical symptoms 6 h [1, 4] | Observation of clinical symptoms 24 h [1, 4] | animal death [1, 5] | Observation of clinical symptoms 0.5 h [1, 5] | Observation of clinical symptoms 1 h [1, 5] | Observation of clinical symptoms 2 h [1, 5] | Observation of clinical symptoms 6 h [1, 5] | Observation of clinical symptoms 24 h [1, 5] | Observation of clinical symptoms 4 h ([1]; oral gavage 300 mg/kg (calculated by free base), 300 mg/kg) | impact on rotarod behaviors of the rats [2] | impact on rotarod behaviors of the rats (impacted proportion) [2] | area under the mechanical pain threshold-time curve compared with the vehicle control group ([3]; oral gavage 10 mg/kg (calculated by free base)) | maximum possible effect (MPE) [3, 6] | time of maximum impact on the rotarod behaviors after the administration ([2]; gavage 30 mg/kg) | maximum possible effect (% MPE) ([3]; oral gavage 30 mg/kg (calculated by free base), from AUC of mechanical pain threshold-time curve to 24 h) |
| --- | --- | --- | --- | --- | --- | --- | --- | --- | --- | --- | --- | --- | --- | --- | --- | --- | --- | --- | --- | --- |
| Cc1ccc(S(=O)(=O)O)cc1.NCC1(CC(=O)O)CC2C3C=CC(C3)C21 (single isomer, unassigned; (+)) [(+)-I-4 p-toluenesulfonate] | no obvious abnormal behaviors | 0 | 0 | 0 | 0 | 0 | 0 | no animals are dead | 0 | 3 | 0 | 0 | 0 | 3 and 0 | no significant impact | smaller than that in the PGB group | significantly improved | 69.09% | – | – |
| CC(C)C[C@H](CN)CC(=O)O [Pregabalin] | – | – | – | – | – | – | – | – | – | – | – | – | – | – | no significant impact | obvious toxic responses | – | 23.04% | 4 h | 110.90% |
